Results from US20200315171A1, “PSYLLID PHEROMONE COMPOSITIONS” (The Regents of the University of California, priority 2017, published 2020).
Entries after “also recorded” stand apart in the source; their conditions may differ.

Assays:
D. citri adults [1] = assay: Field tests with baited yellow sticky traps in a citrus grove; format: in vivo, Diaphorina citri; details: for Males caught: higher-dose field experiment, n=48 per trap
Experimental: Field Experiment 1: Evaluation of lignoceryl acetate, lygnocerol, formic acid, acetic acid, and propionic acid. These experiments were performed in an organic grove of Valencia sweet orange [Citrus sinensis (L.) Osbeck] grafted on ‘Rangpur’ lime (Citrus limonia Osbeck) with natural infestation of D. citri. For this purpose, yellow stick cards (30 cm in length×10 cm in width) with a 2 cm in diameter central hole were used to assess the attractivity of the test compounds to D. citri adults. Compounds were assessed at doses ranging from 0.01 μg to 100 μg. Hexane was used as a control. Tested compounds were incorporated into slow-release devices made of ES fiber (Ethylene-Propylene Side by Side, Chiso Co. Ltd, Japan). The experiments were designed in Latin square using 16 traps spaced 25 m from each other (4 traps per treatment). They were repeated three times over time and the number of captured ACP adults was recorded each 7 days for 49 days.
(§1) Statistical analyses. […] Each pair of a test and a control in indoor behavioral measurements using an Y-olfactometer or 4-way olfactometer, as well in field tests comparing only a single treatment and a control, was compared by using two-tailed, Wilcoxon matched-pairs signed rank test.

D. citri adults [2] = assay: Field tests with transparent traps baited with aged lignoceryl acetate lures; format: in vivo, Diaphorina citri
Experimental: Field Experiment 2: Evaluation of aged lignoceryl acetate lures. Lures were prepared and kept in greenhouses for 28 days prior to being fixed in yellow stick cards in the field. Thus, aged lures were tested in the field starting on day 28 until 70 days after preparation of the lures. The area, experimental design, number of traps, and data collection were the same as described above.
Field Experiment 3: Evaluation of lignoceryl acetate lures using transparent traps. To avoid interference from the yellow visual cues from the stick cards, these experiments were performed with transparent acrylic traps (30 cm in length×10 cm in width) and covered with an adhesive glue film (Biostop Cola, Biocontrole, São Paulo, Brazil). The experimental design, number of traps, and data collection were the same as described above.
as §1

[3] = test system: 7-day-old virgin D. citri males; assay: Y-olfactometer behavioral assay, virgin males as responders; format: in vivo, Diaphorina citri
Experimental: (§2) Indoor behavioral assays. All behavioral assays were conducted in a climate-controlled room (see above). A glass tube in a Y-shape (central tube 15 cm in length and 3 cm in diameter split into two tubes in a 120° angle with the same dimensions used in the central tube) was placed vertically with the decision arms pointing towards the ceiling (light sources). All connections were made with 0.635-diameter polytetrafluoroethylene (PTFE) tubes (Sigma-Aldrich, Bellefonte, Pa., USA). Clean air was provided by an oil-free air compressor (Schulz MSV6, Schulz, Joinville, SC, Brazil) and humidified into milliQ water before the line was split into two separate lines, each one with an air flowmeter with a range from 0.1 to 1.0 L/min (Brooks Instrument, Hatfield, Pa. USA) to allow balanced flow of […]. […] Insects that crossed the central tube line located 5 cm from the bifurcation within the observation time of 5 min were recorded as responders. […]
(§3) Statistical analyses. […] Field tests with multiple comparison (different doses) were analyzed by ANOVA. Capture data were first transformed into log (x+1) and them means were analyzed by Dunnett's test as well as Tukey's test (P<0.05) by comparing the mean of each column with the mean of the control or with the mean of every other group, respectively.

[4] = SPME analysis of volatiles from lures matured under field conditions; format: physicochemical; details: lures matured for 5 weeks under field conditions vs new lures
Experimental: Injections were operated in splitless mode with an injector temperature of 250° C. The GC ovens were programmed from 40° C. for 1 min, increased to 300° C. at 10° C./min (held for 50 min). MS transfer line, manifold, and trap were set at 300° C., 50° C., and 217° C., respectively. Quantitative analyses were done on a Shimadzu GC-2010 gas chromatograph equipped with a flame ionization detector (Shimadzu Corp., Kyoto, Japan) and fitted with an HP5-MS capillary column (30 m×0.25 mm i.d.×[…]; Agilent Scientific, Santa Clara, Calif., USA). SPME analyses were done with a 50/30 divinylbenzene (DVB)/carboxen (CAR)/polydimethylsiloxane (PDMS) (Supelco, catalogue number 57328-U). Volatile compounds were collected from the headspace of the samples placed in a closed glass container with a rubber septum on the top. Both laboratories used the same oven temperature program, i.e., starting at 35° C. for 5 min, raising to 70° C. at a rate of 2.5° C./min, then increasing to 150° C. at 5° C./min, and subsequently raising to the final temperature of 250° C. at 20° C./min.

[5] = test system: 7-day-old virgin D. citri females; details: acetic acid 0.01 μL/μL hexane, 100 μL
Source text: (§4) An air-flow olfactometer, also known as “4-arm olfactometer” or “4-way olfactometer” was constructed^29 (30.0×30.0×2.5 cm in length, width and height, respectively) with acrylic. A constant, charcoal-filtered humidified airflow 0.1 L/min was connected to each odor source, and all airflows converged through individual PTFE tubes to the center of the acrylic arena. Yellow fields were made by adding a yellow laser jet printed-paper below the bottom of the arena with the following color spaces: lightness (84.8±0.04), chroma (98.7±0.40), and hue angle (95.7±0.02) using a colorimeter Minolta CR400 (Konica Minolta Co., Osaka, Japan).^34 Two of the four possible arms received volatiles from acetic acid 0.01 μL/μL hexane (100 μL), whereas the other two remaining received hexane. The psyllids (virgin 7-day-old males or females) were released on the center of the arena. An olfactometer test consisted of the release of a single D. citri and the observation (from 15:00 to 18:00). As a criterion for data collection from each insect, five minutes were allowed for response (first choice). In case of response, 10 minutes were allowed to observe the time spent in each of the four odor fields.
(§5) Statistical analyses. All statistical analyses were done with Prism 7 (GrapPad, La Jolla, Calif.). Each pair of a test and a control in indoor behavioral measurements using an Y-olfactometer or 4-way olfactometer, as well in field tests comparing only a single treatment and a control, was compared by using two-tailed, Wilcoxon matched-pairs signed rank test. Field tests with multiple comparison (different doses) were analyzed by ANOVA. Capture data were first transformed into log (x+1) and them means were analyzed by Dunnett's test as well as Tukey's test (P<0.05) by comparing the mean of each column with the mean of the control or with the mean of every other group, respectively.

[6] = test system: 7-day-old virgin D. citri males; details: acetic acid 0.01 μL/μL hexane, 100 μL
Source text: as §4, §5

ACP female antennae = assay: Electroantennogram (EAG) responses of ACP female antennae to acids; design: species or system Diaphorina citri; details: source dose 10^−1
Experimental: (§6) Electrophysiology. Antennas were mounted, according to a published protocol^26, under a stereoscopic microscope (SZT, BEL Engineering, MB, Italy). Antennae were connected with glass microcapillaries pulled with a PC-10 puller (Narishige, Kanto, Japan). The glass capillaries housed 0.39 mm gold wires (Sigmund Cohn Corp, Mt. Vernon, N.Y.) and were filled with a saline solution (3.7 g NaCl, 0.175 g KCl, 0.17 g CaCl2 in 500 mL of distilled water). Electrodes were connected to a Universal Probe, gain 10× (Syntech, Buchenbach, Germany) and connected to a 2-Chanel IDAC Acquisition Controller (Syntech). The signal was processed with Syntech software (GcEad version 4.6). Two Pasteur pipettes were used one for a flow balance and the other as a stimulus. The stimulus was loaded on a filter paper strip (40×4-mm), which was inserted in the stimulus pipette after evaporation for 1 min. Each cartridge was used only once. The antennal preparation was set at the end of an effluent flow tube, which had two lateral holes (13 cm from the antennal preparations) to accommodate the tips of the Pasteur pipettes (stimulus and flow balance). Humidified continuous flow (0.1 L/min) was generated by a CS-55 Stimulus Controller (Syntech). Flow for stimulus and balance were set at 1 L/min. Stimulus duration was set a 1 s. There was a minimal interval of 1 min between stimuli.

ACP male antennae = assay: Electroantennogram (EAG) responses of ACP male antennae to C1-C6 acids; design: species or system Diaphorina citri
Experimental: as §6

[7] = test system: olfactory receptor neurons in ACP antennae; details: reported in reference 28; cited from earlier work
[8] = test system: 7-day-old virgin D. citri females; details: acetic acid 0.01 μL/μL hexane, 100 μL; remark: listed apart in the source
Experimental: as §2, §3

[9] = yellow sticky traps baited with 0.1 μg
[10] = yellow sticky traps baited with 1 μg
[11] = yellow sticky traps baited with 10 μg

CCCCCCCCCCCCCCCCCCCCCCCCOC(C)=O [24Ac, tetracosyl acetate]
Lure activity after 42 days (D. citri adults [1]; 1 μg per trap, after 42 days): lost activity
Captures in baited traps vs control traps (D. citri adults [1]; 1 μg per trap, at 35 and 42 days): significantly more males were captured
Captures in baited traps vs control traps (D. citri adults [1]; 1, 10 and 100 μg per trap, first weeks of the experiments): not significantly different
Captures in baited traps vs control traps (D. citri adults [1]; 1.0, 10 and 100 μg, 35 and 42 days after onset): a significant difference was observed; also recorded: significantly higher than captures in control traps
Lure activity (D. citri adults [2]; aged lures, after 3 weeks in field): lost all activity
Males collected vs control traps (D. citri adults [2]; lures aged for 35 days, first week in field): collected significantly more males than control traps
Preference of virgin males for treatment vs control in olfactometer ([3]; 0.1 to 100 μg as odor source, P=0.2031-0.9999): did not show any significant preference
Degradation of lure: volatiles detected by SPME [4]: small amounts of acetic acid in aged but not in new lures

CCCCCCCCCCCCCCCCCCCCCCCCO [240H, lignocerol, reference compound]
Captures in treatment vs control traps (D. citri adults [1]; doses from 0.1 to 100 μg, each week, Dunnett P=0.2770-0.9999, n=4 per dose per week): did not find significant differences

CC(=O)O [acetic acid]
Female choice between treatment and control sides of 4-way olfactometer [5]: did not distinguish
Time spent by females on treatment vs control sides of 4-way olfactometer [5]: not significantly different
Time spent by males in treatment vs control fields of 4-way olfactometer [6]: spent significantly more time
Male preference for treatment fields vs control sides in 4-way olfactometer ([6]; first choice): highly significant
Captures vs control traps, preliminary field experiments (D. citri adults [1]; traps baited with 1 ug): captured significantly more ACP adults than control traps
Males caught (D. citri adults [1]; traps baited with 1 μg): 2.48±0.25 males per trap per day
Males caught (D. citri adults [1]; traps baited with 10 μg): 3.08±0.33 males per trap per day
Males caught (D. citri adults [1]; traps baited with 100 μg): 4.23±0.35 males per trap per day
ACP adults captured (D. citri adults [1]; [9]): 7.42±0.35 D. citri per trap per week
ACP adults captured (D. citri adults [1]; [10]): 14.77±0.54 D. citri per trap per week
ACP adults captured (D. citri adults [1]; [11]): 9.52±0.50 D. citri per trap per week
EAG response (ACP female antennae): 3.22±0.94 mV
Male attraction to treatment side vs control side of Y-olfactometer ([3]; acetic acid 0.01 μL/μL hexane, 100 μL): significantly more attracted
EAG response (ACP male antennae; source dose 10^−1): 2.70±0.36 mV
EAG response (ACP male antennae; source dose 10^−2): 1.73±0.37 mV
EAG response (ACP male antennae; very low dose 10^−3): 0.44±0.21 mV
Effect on responses from olfactory receptor neurons [7]: inhibit responses
Female response to baited arm vs control side of Y-olfactometer [8]: did not differ significantly

CCCC(=O)O [butyric acid]
EAG response (ACP male antennae; source dose 10^−1): 0.52±0.36 mV

O=CO [formic acid]
ACP adults captured (D. citri adults [1]; [9]): 2.59±0.30 D. citri per trap per week
ACP adults captured (D. citri adults [1]; [10]): 9.17±0.36 D. citri per trap per week
ACP adults captured (D. citri adults [1]; [11]): 7.14±0.34 D. citri per trap per week
EAG response (ACP female antennae): 1.86±0.48 mV
EAG response (ACP male antennae; source dose 10^−1): 1.60±0.63 mV
EAG response (ACP male antennae; source dose 10^−2): 0.42±0.37 mV

CCCCCC(=O)O [hexanoic acid, reference compound]
EAG response (ACP male antennae; source dose 10^−1): no response

CCC(=O)O [propionic acid]
ACP adults captured (D. citri adults [1]; yellow sticky traps baited with 0.01 μg): 9.52±0.52 D. citri per trap per week
ACP adults captured (D. citri adults [1]; [9]): 18.27±0.52 D. citri per trap per week
ACP adults captured (D. citri adults [1]; [10]): 13.79±0.53 D. citri per trap per week
EAG response (ACP female antennae): 2.90±1.09 mV
EAG response (ACP male antennae; source dose 10^−1): 2.22±0.29 mV
EAG response (ACP male antennae; source dose 10^−2): 1.13±0.47 mV
Effect on responses from olfactory receptor neurons [7]: inhibit responses

CCCCC(=O)O [valeric acid]
EAG response (ACP male antennae; source dose 10^−1): 0.24±0.03 mV
